Among the data in PubChem BioAssay AID2122 (Sanford-Burnham Center for Chemical Genomics, 2009) are IC50 values, retold here.

Values joined by “and” are separate entries in the source; they are usually repeats but may differ in a detail not shown here. Equal values may be shown once.

The test system of the experiment is MIN6 mouse insulinoma cells, cytotoxicity counterscreen. The experiment is described as follows: MIN6 cell viability loss – mouse insulinoma, cytotoxicity control, dose response (AID 2122).

As for `CN(C)c1ccnc2c[cH-]cc12.[Fe].c1ccc(-[c-]2[c-](-c3ccccc3)[c-](-c3ccccc3)[c-](-c3ccccc3)[c-]2-c2ccccc2)cc1` (stereo unspecified), the IC50 is 4.89 µM and 2.24 µM.

The term IC50 denotes the concentration that gives 50% inhibition.
